Experimental data: patent publication US8163909B2, “Substituted hydroxyethyl amine compounds as beta-secretase modulators and methods of use” (Amgen Inc., priority 2007, dated 2012)
Read-outs that look alike come from different tables or passages of the source.

What was measured:
[1] = biological target: Beta Secretase enzyme (BACE) (Homo sapiens, UniProt P56817); test: In vitro enzymatic BACE FRET (fluorescence resonance energy transfer) assay; type: biochemical;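 note: fluorescence read after 1 h with 50 nM quenched peptide substrate spanning the BACE cleavage site, in pH 4.2 acetate buffer containing 10% DMSO and nonionic detergent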
Sequence of Beta Secretase enzyme (BACE) (P56817 46-501): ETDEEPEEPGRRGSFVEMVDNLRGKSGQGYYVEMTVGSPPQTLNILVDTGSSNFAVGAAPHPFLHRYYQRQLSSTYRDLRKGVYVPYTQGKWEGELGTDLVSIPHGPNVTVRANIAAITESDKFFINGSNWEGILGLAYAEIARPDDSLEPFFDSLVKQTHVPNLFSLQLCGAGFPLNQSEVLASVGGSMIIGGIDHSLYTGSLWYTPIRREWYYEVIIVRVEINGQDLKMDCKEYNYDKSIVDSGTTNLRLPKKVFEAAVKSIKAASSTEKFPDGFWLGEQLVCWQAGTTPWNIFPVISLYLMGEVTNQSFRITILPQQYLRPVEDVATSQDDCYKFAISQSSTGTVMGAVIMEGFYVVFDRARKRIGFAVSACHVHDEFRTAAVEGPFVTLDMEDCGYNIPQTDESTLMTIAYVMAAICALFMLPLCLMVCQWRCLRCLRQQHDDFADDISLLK

[2] = test system: Aβ40 in conditioned medium of cells stably expressing Amyloid Precursor Protein (APP); test: In vitro BACE cell-based assay (Aβ40 in conditioned medium, sandwich ELISA); details: Homo sapiens;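 note: compounds added as a dilution series, secreted peptide quantified by europium time-resolved fluorescence readout, potency fitted from percent of control versus compound concentration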
CYP3A4 (CYP3A) = CYP3A4 (CYP3A) (Homo sapiens, UniProt P08684); test: in vitro; details: microsomes, pH 7.4;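 note: inhibition of CYP3A-mediated 1-hydroxymidazolam formation after 10 min incubation with NADPH, quantified by HPLC MS relative to metabolite produced without test compound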
Sequence of CYP3A4 (CYP3A) (P08684 2-503): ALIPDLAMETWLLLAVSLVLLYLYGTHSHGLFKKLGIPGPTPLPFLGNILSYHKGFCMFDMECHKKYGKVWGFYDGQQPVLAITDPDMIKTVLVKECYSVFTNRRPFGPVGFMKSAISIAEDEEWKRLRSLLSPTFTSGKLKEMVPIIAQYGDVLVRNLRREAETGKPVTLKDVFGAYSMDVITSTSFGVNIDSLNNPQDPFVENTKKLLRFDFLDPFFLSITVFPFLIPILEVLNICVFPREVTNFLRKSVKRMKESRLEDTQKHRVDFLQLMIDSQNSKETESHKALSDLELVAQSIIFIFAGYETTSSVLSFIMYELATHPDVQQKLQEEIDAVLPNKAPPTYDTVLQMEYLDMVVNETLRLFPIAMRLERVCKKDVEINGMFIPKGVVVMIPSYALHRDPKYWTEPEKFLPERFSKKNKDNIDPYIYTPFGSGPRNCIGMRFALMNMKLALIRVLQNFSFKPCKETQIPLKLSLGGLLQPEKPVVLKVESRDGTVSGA

[3] = Microsomal stability assay, rat liver microsomes;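 note: rat liver microsomes (0.25 mg/mL) with about 1 µM compound plus 1 mM NADPH, pH 7.4, 37 °C for 30 min, parent left measured by LC-MS/MS against 0 min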
[4] = Microsomal stability assay, human liver microsomes;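 note: pooled human liver microsomes at 0.25 mg/mL with 1 µM compound and NADPH at 37 °C, pH 7.4, for 30 min, unchanged parent quantified by LC-MS/MS against the 0 min sample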
CYP2D6 = CYP2D6 (Homo sapiens, UniProt P10635); test: CYP2D6 inhibition assay (bufuralol, pooled human liver microsomes)
Sequence of CYP2D6 (P10635 whole entry): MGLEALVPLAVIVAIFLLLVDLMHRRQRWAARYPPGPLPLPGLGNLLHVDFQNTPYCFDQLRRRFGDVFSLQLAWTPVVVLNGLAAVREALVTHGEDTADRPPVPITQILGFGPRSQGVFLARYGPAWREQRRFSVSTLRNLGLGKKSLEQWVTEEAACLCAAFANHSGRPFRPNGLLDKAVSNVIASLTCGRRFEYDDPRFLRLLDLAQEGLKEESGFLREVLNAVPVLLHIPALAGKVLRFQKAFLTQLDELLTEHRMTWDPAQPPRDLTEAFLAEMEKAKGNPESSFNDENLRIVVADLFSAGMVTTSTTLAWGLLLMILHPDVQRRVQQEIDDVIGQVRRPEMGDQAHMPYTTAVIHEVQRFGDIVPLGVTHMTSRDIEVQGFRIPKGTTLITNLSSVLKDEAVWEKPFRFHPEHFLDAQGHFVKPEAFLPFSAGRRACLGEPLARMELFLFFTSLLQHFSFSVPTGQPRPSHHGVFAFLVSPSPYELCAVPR

[5] = read-out: BACE1 FRET assay (IC50)
[6] = HEK293, HEK cells, read-out: HEK cell assay (IC50)
[7] = BACE enzyme assay, read-out: BACE1 FRET assay
[8] = HEK293, HEK cells, read-out: HEK cell assay
[9] = 2D6 IC50 (uM), CYP enzyme inhibition
[10] = BACE enzyme assay, IC50's in uM, read-out: BACE1 FRET assay
[11] = HEK293, HEK cell-based assay, IC50's in uM, read-out: HEK cell assay
[12] = Table 2, read-out: BACE1 FRET assay
[13] = HEK293, Table 2, HEK cells, read-out: HEK cell assay
[14] = 2D6 IC50, CYP enzyme inhibition
[15] = HEK293, cell-based assay, HEK cells, IC50's in uM, read-out: HEK cell assay
[16] = BACE enzyme assay IC50, read-out: BACE1 FRET assay
[17] = HEK293, HEK cell-based assay IC50, read-out: HEK cell assay
[18] = 2D6 IC50 (uM), CYP2D6 inhibition

| Compound | IC50 [1, 5] [µM] | IC50 [2, 6] [µM] | IC50 (CYP3A4 (CYP3A)) [nM] | RLM ([3]; rat liver microsomes) [µL/min/mg] | HLM ([4]; human liver microsomes) [µL/min/mg] | IC50 (CYP2D6; 2D6 IC50, CYP2D6 inhibition) [µM] | RLM ([3]; rat liver microsomal data) [µL/min/mg] | HLM ([4]; human liver microsomal data) [µL/min/mg] | further results |
| --- | --- | --- | --- | --- | --- | --- | --- | --- | --- |
| COCC(=O)N[C@@H](Cc1cc(F)cc(F)c1)[C@H](O)CN[C@H]1CC2(CCC2)Oc2c1cc(CC(C)C)nc2Cl [compound 667] | 0.005 | 0.054 | 600 | 682 | 399 | 6.3 |  |  |  |
| CO[C@H](C)C(=O)N[C@@H](Cc1ccccc1)[C@H](O)CN[C@H]1CC2(CCC2)Oc2c(Br)cc(CC(C)C)cc21 [compound 545] |  |  | 1100 |  |  |  | 775 | 775 | IC50 [1, 7]: 0.007 µM; IC50 [2, 8]: 1.49 µM; IC50 (CYP2D6; [9]): 8.2 µM |
| CC#Cc1cnc2c(c1)[C@@H](NC[C@@H](O)[C@H](Cc1cccc(Br)c1)NC(=O)COC)CC1(CCC1)O2 [compound 812] |  |  | 400 |  |  |  | 345 | 260 | IC50 [1, 10]: 0.258 µM; IC50 [2, 11]: 0.954 µM; IC50 (CYP2D6; [9]): 3 µM |
| COCC(=O)N[C@@H](Cc1cc(F)cc(F)c1)[C@H](O)CN[C@H]1CC2(CCC2)Oc2c(-c3nccs3)cc(CC(C)C)cc21 [compound 460] |  |  | 800 |  |  |  | 775 | 775 | IC50 [1, 12]: 0.001 µM; IC50 [2, 13]: 0.028 µM; IC50 (CYP2D6; [14]): 3.9 µM |
| CCOCC(=O)N[C@@H](Cc1cccc(-c2nccs2)c1)[C@H](O)CN[C@H]1CC2(CCC2)Oc2ncc([C@@H]3CC3(C)C)cc21 [compound 914, N-((1S,2R)-3-(((4′S)-6′-((1R)-2,2-dimethylcyclopropyl)-3′,4′-dihydrospiro[cyclobutane-1,2′-pyrano[2,3-b]pyridin]-4′-yl)amino)-2-hydroxy-1-(3-(1,3-thiazol-2-yl)benzyl)propyl)-2-ethoxyacetamide] |  |  | 200 |  |  |  | 61 | 57 | IC50 [1, 10]: 0.002 µM; IC50 [2, 15]: 0.008 µM; IC50 (CYP2D6; [14]): 0.2 µM |
| COCC(=O)N[C@@H](Cc1cccc(F)c1)[C@H](O)CN[C@H]1CC2(CCC2)Oc2c1cc(CC(C)(C)OC)cc2-n1ccnc1.O=C(O)C(F)(F)F [Example 423] | 0.579 | 0.063 | 100 | 132 | 35 | 0.3 |  |  |  |
| COCC(=O)N[C@@H](Cc1cccc(-c2nccs2)c1)[C@H](O)CN[C@@H]1C[C@@]2(CCOC2)Oc2ncc(CC(C)(C)C)cc21 [compound 827, N-((1S,2R)-3-(((3S,4′R)-6′-(2,2-dimethylpropyl)-3′,4,4′,5-tetrahydrospiro[furan-3,2′-pyrano[2,3-b]pyridin]-4′-yl)amino)-2-hydroxy-1-(3-(1,3-thiazol-2-yl)benzyl)propyl)-2-methoxyacetamide] |  |  | 500 |  |  |  | 197 | 97 | IC50 [1, 10]: 0.006 µM; IC50 [2, 11]: 0.007 µM; IC50 (CYP2D6; [9]): 2.1 µM |
| COCCC(=O)N[C@@H](Cc1cccc(-c2nccs2)c1)[C@H](O)CN[C@H]1CC2(CCC2)Oc2ncc(CC(C)(C)C)cc21 [compound 791] |  |  | 100 |  |  |  | 33 | 43 | IC50 [1, 10]: 0.009 µM; IC50 [2, 11]: 0.012 µM; IC50 (CYP2D6; [9]): 0.6 µM |
| CO[C@H](C)C(=O)N[C@@H](Cc1ccccc1)[C@H](O)CN[C@H]1CC2(CCC2)Oc2c(-c3cncn3C)cc(CC(C)C)cc21 [compound 634] | 0.126 | 0.014 | 100 | 340 | 50 | 4.5 |  |  |  |
| COCC(=O)N[C@@H](Cc1ccc(F)cc1)[C@H](O)CN[C@H]1CC2(CCC2)Oc2ncc(CC(C)(C)C#N)cc21 [compound 496] |  |  | 4700 |  |  |  | 139 | 89 | IC50 [1, 7]: 0.024 µM; IC50 [2, 8]: 0.102 µM; IC50 (CYP2D6; [9]): ≥ 27 µM |
| CO[C@H](C)C(=O)N[C@@H](Cc1ccc2c(c1)OCO2)[C@H](O)CN[C@H]1CC2(CCC2)Oc2ncc(CC(C)(C)F)cc21 [compound 741] |  |  | ≤ 30 | 76 | 25 |  |  |  | IC50 [1, 16]: 0.352 µM; IC50 [2, 17]: 0.329 µM; IC50 (CYP2D6; [18]): 5 µM |
| COCC(=O)N[C@@H](Cc1cc(F)cc(F)c1)[C@H](O)CN[C@H]1CC2(CCC2)Oc2c1cc(CC(C)C)cc2-n1ccnc1 [compound 458] |  |  | 100 |  |  |  | 188.5 | 25.5 | IC50 [1, 12]: 0.017 µM; IC50 [2, 13]: 0.012 µM; IC50 (CYP2D6; [14]): 0.9 µM |
| CCCc1cnc2c(c1)[C@@H](NC[C@@H](O)[C@H](Cc1cc(F)cc(-c3nccs3)c1)NC(=O)COC)CC1(CCC1)O2 [compound 865] |  |  | 300 |  |  |  | 74 | 125 | IC50 [1, 10]: 0.086 µM; IC50 [2, 15]: 0.879 µM; IC50 (CYP2D6; [14]): 0.7 µM |
| COCC(=O)N[C@@H](Cc1cncs1)[C@H](O)CN[C@H]1CC2(CCC2)Oc2c(-c3ccncc3)cc(CC(C)(C)C)cc21 [compound 633] | 0.021 | 0.011 | 100 | 153 | 53 | 3 |  |  |  |
| CC(=O)N[C@@H](Cc1ccc(F)c(-c2nccs2)c1)[C@H](O)CN[C@H]1CC2(CCC2)Oc2ncc(CC(C)(C)C)cc21 [compound 621, N-((1S,2R)-3-(((4′S)-6′-(2,2-dimethylpropyl)-3′,4′-dihydrospiro[cyclobutane-1,2′-pyrano[2,3-b]pyridin]-4′-yl)amino)-1-(4-fluoro-3-(1,3-thiazol-2-yl)benzyl)-2-hydroxypropyl)acetamide] | 0.001 | 0.01 | 160 | 64 | 45 | 0.9 |  |  |  |
| CCOCC(=O)N[C@@H](Cc1cccc(F)c1)[C@H](O)CN[C@H]1CC2(CCC2)Oc2ncc(CC(C)(C)C)cc21 [compound 660] | 0.003 | 0.018 | 200 | 775 | 829 | 1.9 |  |  |  |
| COCC(=O)N[C@@H](Cc1ccc(F)c(-c2cncs2)c1)[C@H](O)CN[C@H]1CC2(CCC2)Oc2ncc(CC(C)(C)C)cc21 [compound 684, N-((1S,2R)-3-(((4′S)-6′-(2,2-dimethylpropyl)-3′,4′-dihydrospiro[cyclobutane-1,2′-pyrano[2,3-b]pyridin]-4′-yl)amino)-1-(4-fluoro-3-(1,3-thiazol-5-yl)benzyl)-2-hydroxypropyl)-2-methoxyacetamide] |  |  | 100 | 114 | 56 |  |  |  | IC50 [1, 16]: 0.005 µM; IC50 [2, 17]: 0.012 µM; IC50 (CYP2D6; [18]): 0.2 µM |
| CO[C@H](C)C(=O)N[C@@H](Cc1ccc2c(c1)OCO2)[C@H](O)CN[C@H]1CC2(CCC2)C(=O)c2ncc(CC(C)(C)C)cc21 [compound 626] | 0.133 | 0.108 | 500 | 260 | 153 | 14.4 |  |  |  |
| CO[C@H](C)C(=O)N[C@@H](Cc1cccc(F)c1)[C@H](O)CN[C@H]1CC2(CCC2)Oc2c(-c3ccncc3)cc(CC(C)(C)C)cc21 [compound 585] | 0.016 | 0.012 | 50 | 120 | 65.5 | 0.75 |  |  |  |
| CC(=O)N[C@@H](Cc1ccc2c(c1)OCO2)[C@H](O)CN[C@H]1CC(C)(C)Oc2ncc(CC(C)(C)C)cc21 [compound 679] |  |  | 200 | 138 | 24 |  |  |  | IC50 [1, 16]: 0.019 µM; IC50 [2, 17]: 0.012 µM; IC50 (CYP2D6; [18]): 5.7 µM |
| CO[C@H](C)C(=O)N[C@@H](Cc1ccc2c(c1)OCO2)[C@H](O)CN[C@H]1CC2(CCC2)Oc2ccc(C[C@H](C)F)cc21 [compound 555] |  |  | 400 |  |  |  | 543 | 269 | IC50 [1, 7]: 3.42 µM; IC50 [2, 8]: > 10 µM; IC50 (CYP2D6; [9]): 0.9 µM |
| CO[C@H](C)C(=O)N[C@@H](Cc1ccc(F)cc1)[C@H](O)CN[C@H]1CC2(CCC2)Oc2c1cc(CC(C)C)cc2-n1ccnc1 [compound 482] |  |  | 100 |  |  |  | 194 | 27 | IC50 [1, 12]: 0.15 µM; IC50 [2, 13]: 0.422 µM; IC50 (CYP2D6; [14]): 3.6 µM |
| COCC(=O)N[C@@H](Cc1ccc2c(c1)OCO2)[C@H](O)CN[C@H]1CC2(CCC2)Oc2ncc(CCC(F)(F)F)cc21 [compound 445] |  |  | 200 |  |  |  | 121 | 24 | IC50 [1, 12]: 0.754 µM; IC50 [2, 13]: 0.621 µM; IC50 (CYP2D6; [14]): 4.1 µM |
| CC(C)(C)Cc1cnc2c(c1)[C@@H](NC[C@@H](O)[C@H](Cc1ccc(F)cc1)NC(=O)C(C)(F)F)CC1(CCC1)O2 [compound 477] |  |  | 300 |  |  |  | 337 | 118 | IC50 [1, 12]: 0.012 µM; IC50 [2, 13]: 0.104 µM; IC50 (CYP2D6; [14]): 3.2 µM |
| CNc1nc(CC(C)C)cc2c1OC1(CCC1)C[C@@H]2NC[C@@H](O)[C@H](Cc1ccc2c(c1)OCO2)NC(=O)[C@@H](C)OC [compound 680] |  |  | 500 | 317 | 220 |  |  |  | IC50 [1, 16]: 0.14 µM; IC50 [2, 17]: 0.025 µM; IC50 (CYP2D6; [18]): 14 µM |
